SMILES strings stand for the structures. Counter-ions that a name gives are not always drawn. Like-named read-outs stand apart in the source and are kept apart here.

Type in all cases: cell-based
Test [1] deals with E. coli 190317 (TEM-1, SHV-12, CTX-M-15, OXA-1). The experiment in a line: microbe, parasite or virus in culture. Here is the method: (§1) Briefly, compounds alone according to the invention were prepared in DMSO and spotted (2 μL each) on sterile polystyrene plates (Corning, 3788). […] Microplates were incubated for 16-20 h at 35° C. in ambient air. The MIC of the compounds was defined as the lowest concentration of said compounds that prevented bacterial growth as read by visual inspection.

Test [2] relates to P. aeruginosa CIP107051 (TEM-24). Briefly: MIC of compounds and synergy with ceftazidime (broth microdilution). As to conditions: for MIC, combination of CAZ and compounds of the invention: MIC of ceftazidime with compound fixed at 4 μg/mL; for MIC: Pseudomonas aeruginosa. Here is the method: as §1
The test system of test [3] is K. pneumoniae 6299 (TEM-1, SHV-11, OXA-163). The description is as above. The settings on record: for MIC, combination of CAZ and compounds of the invention: MIC of ceftazidime with compound fixed at 4 μg/mL; for MIC: Klebsiella pneumoniae. Here is the method:
as §1

Test [4] has as its system E. cloacae P99 (Derepressed ampC). The test is described as above. As to conditions: strain P99 (E. cloacae); for MIC, combination of CAZ and compounds of the invention: MIC of ceftazidime with compound fixed at 4 μg/mL. The protocol:
as §1

Test [5] has as its system P. aeruginosa CIP105250 (OXA-15). The description is as above. As to conditions: for MIC, combination of CAZ and compounds of the invention: MIC of ceftazidime with compound fixed at 4 μg/mL; for MIC: Pseudomonas aeruginosa. The protocol: as §1
Test [6] deals with K. pneumoniae BAA-1898 (TEM-1, SHV-11, SHV-12, KPC-2). Described as above. As to conditions: for MIC, combination of CAZ and compounds of the invention: MIC of ceftazidime with compound fixed at 4 μg/mL; for MIC: Klebsiella pneumoniae. Here is the method: as §1
In the next test the test system is E. coli RGN238 (OXA-1). Described as above. The settings on record: for MIC: Escherichia coli. Here is the method:
as §1

For test [7], the system named is E. coli 131119 (TEM-1, OXA-48). The test is described as above. As to conditions: for MIC: Escherichia coli. The protocol:
as §1

For test [8], the system named is P. aeruginosa UFR35 (OXA-23). Described as above. As to conditions: Pseudomonas aeruginosa, read-out: MIC of CAZ. Here is the method: as §1
The test system of test [9] is P. aeruginosa UFR92 (Derepressed ampC, OprD-). The description is as above. The settings on record: Pseudomonas aeruginosa, read-out: MIC of CAZ. Here is the method: as §1
For test [10], the system named is E. coli UFR74 (SHV-1, DHA-1). The description is as above. As to conditions: Escherichia coli, read-out: MIC of CAZ. Here is the method:
as §1

Test [11] has as its system K. pneumoniae UFR77 (CMY-2). The test is described as above. The settings on record: Klebsiella pneumoniae, read-out: MIC of CAZ. The protocol:
as §1

The subject of test [12] is P. aeruginosa UFR48 (VIM-2). Described as above. As to conditions: Pseudomonas aeruginosa, read-out: MIC of CAZ. Here is the method:
as §1

For test [13], the system named is P. aeruginosa UFR90 (Derepressed ampC, OprD-). The test is described as above. The settings on record: Pseudomonas aeruginosa, read-out: MIC of CAZ. The protocol:
as §1

The mark [14] stands for this setting: strain CIP107051 (P. aeruginosa).
Setting [15] is: strain CIP105250 (P. aeruginosa).
[16] abbreviates: strain BAA-1898 (K. pneumoniae).

On to `COC[C@H]1C=C(c2cnco2)[C@@H]2CN1C(=O)N2OS(=O)(=O)[O-].[Na+]` (relative stereo) [Example 4], for which the “MIC, combination of CAZ and compounds of the invention” value in test [1] (MIC of ceftazidime with compound fixed at 4 μg/mL, strain 190317 (E. coli)) amounted to 4 µg/mL; in [2] (setting [14]) it was 64 µg/mL; in test [3] (strain 6299 (K. pneumoniae)) it was 128 µg/mL; in test [4], 64 µg/mL; in test [5] (setting [15]), 128 µg/mL; in [6] (setting [16]), 64 µg/mL. Moreover, the “MIC compounds of the invention alone” value in test [1] (strain 190317 (E. coli)), in test [2] (setting [14]), in test [3] (strain 6299 (K. pneumoniae)), in test [4], in test [5] (setting [15]) and in test [6] (setting [16]) was >32 µg/mL in each case. Further, the “MIC compounds of the invention alone” value (in the test on E. coli RGN238 (OXA-1) (strain RGN238 (E. coli)); in test [7] (strain 131119 (E. coli))) was >32 µg/mL throughout.
On to `N=C(N)NC[C@@H]1C(c2nccs2)=C[C@@H]2CN1C(=O)N2OS(=O)(=O)O` [Example 7, [(2S,5R)-2-(guanidinomethyl)-7-oxo-3-thiazol-2-yl-1,6-diazabicyclo[3.2.1]oct-3-en-6-yl] hydrogen sulfate], for which the MIC in test [1] (Escherichia coli, 18 h, read-out: MIC compounds of the invention alone) was 0.063 µg/mL; in [2] (18 h, strain CIP107051 (P. aeruginosa), read-out: MIC compounds of the invention alone) it was 8 µg/mL; in test [3] (18 h, strain 6299 (K. pneumoniae), read-out: MIC compounds of the invention alone), > 32 µg/mL; in [4] (Enterobacter cloacae, 18 h, read-out: MIC compounds of the invention alone), 0.031 µg/mL; in test [5] (18 h, strain CIP105250 (P. aeruginosa), read-out: MIC compounds of the invention alone) it was 32 µg/mL; in [6] (BAA1898, strain BAA-1898 (K. pneumoniae), read-out: MIC compounds of the invention alone), > 32 µg/mL. The MIC in the test on E. coli RGN238 (OXA-1) (18 h, strain RGN238 (E. coli), read-out: MIC compounds of the invention alone) stood at 16 µg/mL; in test [7] (18 h, strain 131119 (E. coli), read-out: MIC compounds of the invention alone), 0.031 µg/mL. The “MIC, combination of CAZ and compounds of the invention” value was 1 µg/mL in test [2] (setting [14]); 2 µg/mL in test [3] (strain 6299 (K. pneumoniae)); <0.125 µg/mL in test [4]; 32 µg/mL in test [5] (setting [15]); ≤0.125 µg/mL in test [6] (setting [16]).
Regarding `CC(C)(O/N=C(\C(=O)N[C@@H]1C(=O)N2C(C(=O)[O-])=C(C[n+]3ccccc3)CS[C@H]12)c1csc(N)n1)C(=O)O` [CAZ, ceftazidime, reference compound], the MIC in [8] was 2 µg/mL; in test [2] (CIP107051, read-out: MIC of CAZ) it was 256 µg/mL; in test [9], 32 µg/mL; in test [3] (read-out: MIC of CAZ) it was 256 µg/mL; in test [10] it was 64 µg/mL; in [11] it was 64 µg/mL. The MIC in test [5] (CIP105250, read-out: MIC of CAZ) was 256 µg/mL; in test [12], 256 µg/mL; in test [6] (BAA1898, read-out: MIC of CAZ), 256 µg/mL; in [13], 64 µg/mL; in the test on E. coli RGN238 (OXA-1) (read-out: MIC of CAZ), 0.5 µg/mL; in test [7] (read-out: MIC of CAZ), 0.5 µg/mL.

The record behind these values is patent US10072006B2 (MUTABILIS, priority 2015, dated 2018).
